Source: ChEMBL document CHEMBL5500407, “Designing Chromane Derivatives as α2A-Adrenoceptor Selective Agonists via Conformation Constraint” (J Med Chem, 2024)
Activity calls are given as the source filed them. The calls are words filed in the database; no cut-off is given here.

Assays:
[1] = target: T1, Alpha-2A adrenergic receptor (Homo sapiens, UniProt P08913); experiment: Agonist activity at human alpha2A adrenoceptor assessed as [35S]GTPgammaS binding by scintillation counting analysis; type: functional
T1 sequence (P08913 whole entry): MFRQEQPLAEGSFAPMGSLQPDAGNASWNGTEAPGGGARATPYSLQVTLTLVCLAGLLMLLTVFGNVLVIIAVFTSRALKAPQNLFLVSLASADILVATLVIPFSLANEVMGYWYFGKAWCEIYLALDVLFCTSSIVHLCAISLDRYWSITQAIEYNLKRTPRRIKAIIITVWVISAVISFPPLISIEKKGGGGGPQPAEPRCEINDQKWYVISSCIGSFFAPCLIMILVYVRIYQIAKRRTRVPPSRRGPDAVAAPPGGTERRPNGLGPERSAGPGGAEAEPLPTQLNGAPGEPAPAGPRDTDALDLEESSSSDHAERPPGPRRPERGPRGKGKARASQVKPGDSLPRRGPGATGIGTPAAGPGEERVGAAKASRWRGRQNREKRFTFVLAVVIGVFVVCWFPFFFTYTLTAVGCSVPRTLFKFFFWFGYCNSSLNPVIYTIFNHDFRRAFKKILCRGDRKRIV

[2] = target: T2, Adrenergic receptor alpha-1 (Homo sapiens, UniProt P35348+P25100+P35368); experiment: Binding affinity to alpha1-adrenoceptor (unknown origin); type: protein assay
T2 sequence (P35348 whole entry): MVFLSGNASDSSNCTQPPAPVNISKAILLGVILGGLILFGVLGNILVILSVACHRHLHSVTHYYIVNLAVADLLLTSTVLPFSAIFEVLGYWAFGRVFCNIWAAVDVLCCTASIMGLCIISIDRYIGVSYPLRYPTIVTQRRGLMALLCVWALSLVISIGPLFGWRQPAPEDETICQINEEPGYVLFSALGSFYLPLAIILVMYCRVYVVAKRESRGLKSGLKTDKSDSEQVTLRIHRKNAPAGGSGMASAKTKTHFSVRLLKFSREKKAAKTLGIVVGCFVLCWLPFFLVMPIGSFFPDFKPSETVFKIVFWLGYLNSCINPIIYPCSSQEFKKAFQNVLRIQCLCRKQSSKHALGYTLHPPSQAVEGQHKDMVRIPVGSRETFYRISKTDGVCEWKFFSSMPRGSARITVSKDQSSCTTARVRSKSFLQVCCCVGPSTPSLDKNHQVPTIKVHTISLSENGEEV
T2 sequence (P25100 whole entry): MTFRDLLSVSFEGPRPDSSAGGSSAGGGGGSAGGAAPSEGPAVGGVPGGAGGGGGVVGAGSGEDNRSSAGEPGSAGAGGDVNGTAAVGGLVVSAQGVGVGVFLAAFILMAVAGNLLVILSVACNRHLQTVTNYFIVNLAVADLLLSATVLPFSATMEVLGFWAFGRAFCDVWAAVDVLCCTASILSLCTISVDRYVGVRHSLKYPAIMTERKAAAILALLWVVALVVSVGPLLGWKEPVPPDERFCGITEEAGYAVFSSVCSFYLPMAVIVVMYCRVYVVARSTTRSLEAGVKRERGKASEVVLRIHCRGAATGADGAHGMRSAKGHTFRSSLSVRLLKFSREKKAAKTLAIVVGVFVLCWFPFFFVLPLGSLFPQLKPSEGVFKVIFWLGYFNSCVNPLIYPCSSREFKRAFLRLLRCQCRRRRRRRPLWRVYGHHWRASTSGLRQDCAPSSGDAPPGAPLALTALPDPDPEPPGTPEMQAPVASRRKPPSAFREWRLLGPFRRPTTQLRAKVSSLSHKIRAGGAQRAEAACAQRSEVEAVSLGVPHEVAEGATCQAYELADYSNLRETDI
T2 sequence (P35368 whole entry): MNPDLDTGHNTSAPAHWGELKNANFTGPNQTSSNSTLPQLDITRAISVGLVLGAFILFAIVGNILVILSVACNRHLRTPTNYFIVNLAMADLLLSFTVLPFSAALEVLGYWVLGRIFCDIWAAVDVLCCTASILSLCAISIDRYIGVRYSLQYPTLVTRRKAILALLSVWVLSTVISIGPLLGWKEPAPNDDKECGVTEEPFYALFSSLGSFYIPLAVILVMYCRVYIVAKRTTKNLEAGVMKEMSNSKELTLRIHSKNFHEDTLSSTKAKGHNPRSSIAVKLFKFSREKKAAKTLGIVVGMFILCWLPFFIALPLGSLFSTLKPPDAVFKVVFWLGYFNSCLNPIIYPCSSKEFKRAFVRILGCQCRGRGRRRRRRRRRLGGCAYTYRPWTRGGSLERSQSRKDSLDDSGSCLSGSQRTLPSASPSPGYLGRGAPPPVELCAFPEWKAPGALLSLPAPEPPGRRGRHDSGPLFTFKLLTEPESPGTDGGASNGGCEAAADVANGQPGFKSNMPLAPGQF

[3] = target: T3, Adrenergic receptor alpha-2 (Homo sapiens, UniProt P08913+P18825+P18089); experiment: Binding affinity to alpha2-adrenoceptor (unknown origin); type: protein assay
T3 sequence (P08913 whole entry): T1 sequence (P08913 whole entry)
T3 sequence (P18825 whole entry): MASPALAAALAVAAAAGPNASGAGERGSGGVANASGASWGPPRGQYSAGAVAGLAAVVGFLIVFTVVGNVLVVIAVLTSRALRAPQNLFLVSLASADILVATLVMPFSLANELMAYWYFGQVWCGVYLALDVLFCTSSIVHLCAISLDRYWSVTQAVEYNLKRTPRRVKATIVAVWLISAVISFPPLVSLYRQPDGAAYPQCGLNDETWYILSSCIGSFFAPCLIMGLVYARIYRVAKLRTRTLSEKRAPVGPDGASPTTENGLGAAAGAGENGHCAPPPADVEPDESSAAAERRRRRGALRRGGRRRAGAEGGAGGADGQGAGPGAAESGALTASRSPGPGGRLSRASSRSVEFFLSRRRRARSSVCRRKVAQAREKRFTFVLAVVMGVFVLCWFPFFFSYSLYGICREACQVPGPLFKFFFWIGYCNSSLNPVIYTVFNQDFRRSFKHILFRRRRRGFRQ
T3 sequence (P18089 whole entry): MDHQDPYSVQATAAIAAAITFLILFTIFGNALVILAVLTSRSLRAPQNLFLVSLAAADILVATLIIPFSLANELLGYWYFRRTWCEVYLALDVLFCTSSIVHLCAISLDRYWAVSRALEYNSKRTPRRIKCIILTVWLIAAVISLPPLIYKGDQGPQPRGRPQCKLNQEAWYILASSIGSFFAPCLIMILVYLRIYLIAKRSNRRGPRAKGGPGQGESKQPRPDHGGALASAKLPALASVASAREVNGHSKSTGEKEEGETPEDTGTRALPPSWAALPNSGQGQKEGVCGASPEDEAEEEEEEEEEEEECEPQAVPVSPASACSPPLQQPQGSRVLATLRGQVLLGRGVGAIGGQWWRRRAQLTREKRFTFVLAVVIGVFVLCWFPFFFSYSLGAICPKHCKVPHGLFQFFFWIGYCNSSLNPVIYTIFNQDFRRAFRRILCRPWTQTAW

[4] = Metabolic stability in mouse liver microsomes assessed as intrinsic clearance; type: ADME, Microsome; conditions: read-out: CLH
[5] = Metabolic stability in mouse liver microsomes assessed as elimination half life; type: ADME, Microsome
[6] = target: T4, Alpha-2C adrenergic receptor (Homo sapiens, UniProt P18825); experiment: Agonist activity at human alpha2C-adrenoceptor
T4 sequence (P18825 whole entry): T3 sequence (P18825 whole entry)

[7] = target: T5, Alpha-1D adrenergic receptor (Homo sapiens, UniProt P25100); experiment: Binding affinity to human alpha1D-adrenoceptor
T5 sequence (P25100 whole entry): T2 sequence (P25100 whole entry)

[8] = target: T4, Alpha-2C adrenergic receptor; experiment: Agonist activity at alpha2C-adrenoceptor (unknown origin) expressed in CHO-alpha2C-PKAcatEGFP cells assessed as increase in intracellular calcium level measured after 15 mins incubation by Micro automated microscopy; type: functional, cell-based
[9] = target: T6, Alpha-1A adrenergic receptor (Homo sapiens, UniProt P35348); experiment: Agonist activity at alpha1A-adrenoceptor (unknown origin) expressed in HEK293T cells assessed as fluorescence intensity measured after 30 mins by IP-one homogeneous time-resolved fluorescence assay; type: functional, cell-based
T6 sequence (P35348 whole entry): T2 sequence (P35348 whole entry)

[10] = target: T7, Alpha-2B adrenergic receptor (Homo sapiens, UniProt P18089); experiment: Agonist activity at human alpha2B-adrenoceptor
T7 sequence (P18089 whole entry): T3 sequence (P18089 whole entry)

[11] = target: T6, Alpha-1A adrenergic receptor
Description: Binding affinity to human alpha1A-adrenoceptor

[12] = target: T7, Alpha-2B adrenergic receptor; experiment: Agonist activity at alpha2B-adrenoceptor (unknown origin) expressed in U2OS-EGFP-NFAT2-alpha2B-AR cells assessed as increase in intracellular calcium level measured after 15 mins incubation by Micro automated microscopy; type: functional, cell-based
[13] = target: T8, Alpha-1B adrenergic receptor (Homo sapiens, UniProt P35368); experiment: Binding affinity to human alpha1B-adrenoceptor
T8 sequence (P35368 whole entry): T2 sequence (P35368 whole entry)

[14] = system: HEK293T; experiment: Agonist activity at alpha2A-adrenoceptor F427A mutant (unknown origin) expressed in HEK293T cells co-expressing pGloSensor-22F cAMP plasmid assessed as at 1 to 100 uM measured after 10 mins incubation by multiplate reader; type: cell-based; conditions: Homo sapiens, filed as agonist, dose 1-100 µM
[15] = system: Mus musculus; experiment: Hypnotic activity in ip dosed C57BL/6 mouse assessed as increase in immobility time; type: functional, organism-based
[16] = system: Mus musculus; experiment: Hypnotic activity in C57BL/6 mouse assessed as increase in loss of righting reflex (LORR) in presence of atipamezole alpha2-adrenoceptor antagonist at 0.60 mg/kg, ip; type: functional, organism-based; conditions: dose 0.6 mg/kg
[17] = system: Mus musculus; experiment: Hypnotic activity in C57BL/6 mouse assessed as increase in loss of righting reflex (LORR) in presence of JP1302 alpha2C-adrenoceptor antagonist at 0.60 mg/kg, ip; type: functional, organism-based; conditions: dose 0.6 mg/kg
[18] = system: HEK293T; experiment: Agonist activity at alpha2A-adrenoceptor Y409A mutant (unknown origin) expressed in HEK293T cells co-expressing pGloSensor-22F cAMP plasmid assessed as at 0.000001 to 100 uM measured after 10 mins incubation by multiplate reader; type: cell-based; conditions: Homo sapiens, dose lower 1e-06 µM, dose upper 100.0 µM
[19] = system: Mus musculus; experiment: Hypnotic activity in C57BL/6 mouse assessed as increase in induction time righting reflex (LORR) in presence of atipamezole alpha2-adrenoceptor antagonist at 0.60 mg/kg, ip; type: functional, organism-based; conditions: dose 0.6 mg/kg
[20] = system: Mus musculus; experiment: Hypnotic activity in C57BL/6 mouse assessed as increase in loss of righting reflex (LORR) in presence of BRL44408 alpha2A-adrenoceptor antagonist at 0.60 mg/kg, ip; type: functional, organism-based; conditions: dose 0.6 mg/kg
[21] = system: Mus musculus; experiment: Hypnotic activity in C57BL/6 mouse assessed as increase in loss of righting reflex (LORR) in presence of ARC239 alpha2B-adrenoceptor antagonist at 0.60 mg/kg, ip; type: functional, organism-based; conditions: dose 0.6 mg/kg
[22] = system: HEK293T; experiment: Agonist activity at alpha2A-adrenoceptor D128A mutant (unknown origin) expressed in HEK293T cells co-expressing pGloSensor-22F cAMP plasmid assessed as at 0.000001 to 100 uM measured after 10 mins incubation by multiplate reader; type: cell-based; conditions: Homo sapiens, dose lower 1e-06 µM, dose upper 100.0 µM

CC(c1cccc(C2(C(F)(F)F)N=N2)c1)c1c[nH]cn1 (configuration not stated)
pEC50 [1]: 6.53

Cc1cccc2c1CCC2c1c[nH]cn1 (configuration not stated)
pKi [2]: 7.14 | pKi [3]: 8.06

Cc1cccc([C@H](C)c2cnc[nH]2)c1C [DEXMEDETOMIDINE]
microsomal CLint [4]: 8.89 µL/min/mg | half-life [5]: 2.6 h | EC50 [6]: 28.8 nM | Ki [7]: 1230 nM | EC50 [8]: 5.37 nM | EC50 [9]: 13 nM | EC50 [10]: 3.31 nM | Ki [11]: 1320 nM | EC50 [12]: 1.91 nM | Ki [13]: 9120 nM

Brc1cccc2c1OCCC2c1c[nH]cn1 (configuration not stated)
Activity [14]: Active | Activity [15]: Dose-Dependent Effect | microsomal CLint [4]: 29 µL/min/mg | Activity [16]: inactive | half-life [5]: 0.797 h | Activity [17]: Active | EC50 [8]: 21.3 nM | EC50 [9]: 2.55 nM | Activity [18]: inactive | Activity [19]: inactive | Activity [20]: inactive | EC50 [12]: 163 nM | Activity [21]: Active | Activity [22]: inactive
